Experimental findings from US10208015B2, “Aryl-triazolyl pyridines as pest control agents” (BAYER ANIMAL HEALTH GMBH, priority 2014, dated 2019) are described below.

SMILES strings stand for the structures.

In one data set the test system is Phaedon cochleariae. The data set is described as follows: Phaedon cochleariae spray test. The data set is classed as in vivo. As to conditions: application rate 100 g/ha, after 7 days. The procedure: Phaedon Cochleariae—Spray Test
(§1) • Solvent: 78.0 parts by weight of acetone • 1.5 parts by weight of dimethylformamide • Emulsifier: alkylaryl polyglycol ether
(§2) To produce a suitable preparation of active compound, 1 part by weight of active compound is dissolved using the stated parts by weight of solvent and made up with water containing an emulsifier concentration of 1000 ppm until the desired concentration is attained. To produce further test concentrations, the preparation is diluted with emulsifier-containing water.
After 7 days, the efficacy in % is determined. 100% means that all the beetle larvae have been killed; 0% means that no beetle larvae have been killed.

The next data set deals with Boophilus microplus. Briefly: Boophilus microplus injection test. The data set is classed as in vivo. Particulars: application rate 20 μg/animal, assessed after 7 days. Here is the method:
Boophilus microplus—Injection Test • Solvent: dimethyl sulphoxide […] The animals are transferred into dishes and kept in a climate-controlled room. Efficacy is assessed after 7 days by laying of fertile eggs. Eggs which are not visibly fertile are stored in a climate-controlled cabinet until the larvae hatch after about 42 days.

A further data set concerns Lucilia cuprina. The data set is described as follows: Lucilia cuprina test. The data set is classed as in vivo. Particulars: application rate 100 ppm, L1 larvae, after 2 days. The procedure: (§3) • Solvent: dimethyl sulphoxide
(§4) To produce a suitable preparation of active compound, 10 mg of active compound are mixed with 0.5 ml of dimethyl sulphoxide, and the concentrate is diluted with water to the desired concentration.
About 20 L1 larvae of the Australian sheep blowfly (Lucilia cuprina) are transferred into a test vessel containing minced horsemeat and the active compound preparation of the desired concentration.
After 2 days, the kill in % is determined. 100% means that all the larvae have been killed; 0% means that no larvae have been killed.

A short description of data set [1]: logP by HPLC on reversed-phase column (C18), EEC Directive 79/831 Annex V.A8. The data set is classed as physicochemical. As to conditions: HPLC, C18, acetonitrile (0.1% formic acid)/water (0.09% formic acid) gradient.
The subject of the next data set is Musca domestica. The data set is described as follows: Musca domestica test. As to conditions: application rate 100 ppm, adult houseflies, after 2 days. The data set is classed as in vivo. Here is the method:
as §3, §4
Vessels containing a sponge treated with sugar solution and the active compound preparation of the desired concentration are populated with 10 adult houseflies (Musca domestica).
After 2 days, the kill in % is determined. 100% means that all of the flies have been killed; 0% means that none of the flies have been killed.

Data set [2] relates to Ctenocephalides felis. Briefly: Ctenocephalides felis oral test. Type of data set: in vivo. As to conditions: application rate 100 ppm in citrated cattle blood, after 2 days. An excerpt: Ctenocephalides felis—Oral Test • Solvent: dimethyl sulphoxide […] Dilution with citrated cattle blood gives the desired concentration. About 20 unfed adult cat fleas (Ctenocephalides felis) are placed into a chamber which is closed at the top and bottom with gauze. A metal cylinder whose bottom end is closed with parafilm is placed onto the chamber. The cylinder contains the blood/active compound preparation, which can be imbibed by the fleas through the parafilm membrane.

For another data set, the system named is Spodoptera frugiperda. The data set is described as follows: Spodoptera frugiperda spray test. Particulars: application rate 100 g/ha, after 7 days. The data set is classed as in vivo. Here is the method: Spodoptera Frugiperda—Spray Test
as §1, §2
Leaf discs of maize (Zea mays) are sprayed with an active compound preparation of the desired concentration and, after drying, populated with caterpillars of the armyworm (Spodopterafrugiperda).
After 7 days, the efficacy in % is determined. 100% means that all the caterpillars have been killed; 0% means that no caterpillars have been killed.

The next data set relates to Tetranychus urticae. Briefly: Tetranychus urticae spray test, OP-resistant. Type of data set: in vivo. As to conditions: after 6 days. Here is the method:
Tetranychus Urticae—Spray Test, OP-Resistant
as §1
To produce further test concentrations, the preparation is diluted with emulsifier-containing water.
After 6 days, the efficacy in % is determined. 100% means that all the spider mites have been killed; 0% means that none of the spider mites have been killed.

In data set [3] the test system is Boophilus microplus Parkhurst strain, SP-resistant. The data set is described as follows: Boophilus microplus dip test. Type of data set: in vivo. Particulars: application rate 100 ppm, assessed after 7 days. Here is the method:
Boophilus microplus—Dip Test
• Test animals: cattle ticks (Boophilus microplus) Parkhurst strain, SP-resistant • Solvent: dimethyl sulphoxide
10 mg of active compound are dissolved in 0.5 ml of dimethyl sulphoxide. To produce a suitable formulation, the active compound solution is diluted with water to the concentration desired in each case.
This active compound preparation is pipetted into tubes. 8-10 engorged adult female cattle ticks (Boophilus microplus) are transferred into a further tube with holes. The tube is immersed into the active compound preparation, and all the ticks are completely wetted. After the liquid has run out, the ticks are transferred on filter discs into plastic dishes and stored in a climate-controlled room.
Efficacy is assessed after 7 days by laying of fertile eggs. Eggs which are not visibly fertile are stored in a climate-controlled cabinet until the larvae hatch after about 42 days. An efficacy of 100% means that none of the ticks has laid any fertile eggs; 0% means that all the eggs are fertile.

Data set [4] has as its system Ctenocephalides felis. The data set is described as follows: Ctenocephalides felis in vitro contact test with adult cat fleas. Particulars: application rate 500 g/ha (5 μg/cm^2), after 48 h. The data set is classed as in vivo. Here is the method: Ctenocephalides felis—In Vitro Contact Tests with Adult Cat Fleas
(§5) For the coating of the test tubes, 9 mg of active compound are first dissolved in 1 ml of acetone p.a. and then diluted to the desired concentration with acetone p.a. 250 μl of the solution are distributed homogeneously on the inner walls and the base of a 25 ml test tube by turning and rocking on an orbital shaker (rocking rotation at 30 rpm for 2 h). With 900 ppm active compound solution and internal surface 44.7 cm^2, given homogeneous distribution, an area-based dose of 5 μg/cm^2 is achieved.
After the solvent has evaporated off, the tubes are populated with 5-10 adult cat fleas (Ctenocephalides felis), sealed with a perforated plastic lid and incubated in a horizontal position at room temperature and ambient humidity. After 48 h, efficacy is determined. To this end, the test tubes are stood upright and the fleas are knocked to the base of the tube. Fleas which remain motionless at the base or move in an uncoordinated manner are considered to be dead or moribund.
100% efficacy means that all the fleas were dead or moribund. 0% efficacy means that no fleas were harmed.

A further data set relates to Rhipicephalus sanguineus. The data set is described as follows: Rhipicephalus sanguineus in vitro contact test with adult brown dog ticks. Type of data set: in vivo. As to conditions: application rate 500 g/ha (5 μg/cm^2), after 48 h. Here is the method:
Rhipicephalus sanguineus—In Vitro Contact Tests with Adult Brown Dog Ticks
as §5
After the solvent has evaporated off, the tubes are populated with 5-10 adult dog ticks (Rhipicephalus sanguineus), sealed with a perforated plastic lid and incubated in a horizontal position in the dark at room temperature and ambient humidity. After 48 h, efficacy is determined. To this end, the ticks are knocked to the floor of the tube and incubated on a hotplate at 45-50° C. for not more than 5 min. Ticks which remain motionless on the floor or move in such an uncoordinated manner that they are unable to deliberately avoid the heat by climbing upwards are considered to be dead or moribund.
An efficacy of 100% means that all the ticks were dead or moribund. 0% efficacy means that none of the ticks had been harmed.

The subject of another data set is Myzus persicae. The data set is described as follows: Myzus persicae spray test. Type of data set: in vivo. As to conditions: application rate 100 g/ha, after 6 days. Here is the method: Myzus Persicae—Spray Test […] To produce further test concentrations, the preparation is diluted with emulsifier-containing water. Discs of Chinese cabbage leaves (Brassica pekinensis) infested by all stages of the green peach aphid (Myzus persicae) are sprayed with an active compound preparation of the desired concentration.

As for `COc1ncc(-c2cn(-c3c(Cl)cc(C(F)(C(F)(F)F)C(F)(F)F)cc3Cl)nn2)cc1C(=O)NC1(C#N)CC1` [Example 4], the efficacy in % in the data set with Phaedon cochleariae and with Spodoptera frugiperda was 100% throughout. In the data set on Boophilus microplus, the “efficacy (laying of fertile eggs)” value worked out at 100%. The “efficacy (kill in %)” value in the data set on Lucilia cuprina, in the data set with Musca domestica and with Ctenocephalides felis [2] was 100% in each case. For the same molecule, the logP in data set [1] was found to be 4.3.
`Cc1ncc(-c2cn(-c3c(Cl)cc(C(F)(C(F)(F)F)C(F)(F)F)cc3Cl)nn2)cc1C(=O)NC1(C#N)CC1` [Example 6]: the efficacy in % with Tetranychus urticae (application rate 100 g/ha), with Phaedon cochleariae and in the data set with Spodoptera frugiperda was 100% in each case. The “efficacy (laying of fertile eggs)” value (in data set [3]; with Boophilus microplus) was 100% throughout. Moreover, the “efficacy (fleas dead or moribund)” value in the data set with Ctenocephalides felis [4] is reported as 100%. Further, the “efficacy (kill in %)” value in the data set with Lucilia cuprina, with Musca domestica and in the data set with Ctenocephalides felis [2] was 100% in each case. This molecule also had a logP in [1] of 3.5.
Take `COc1ncc(-c2cn(-c3c(C)cc(C(F)(C(F)(F)F)C(F)(F)F)cc3C)nn2)cc1C(=O)NC1(C#N)CC1` [Example 7]: the efficacy in % in the data set on Phaedon cochleariae and in the data set with Spodoptera frugiperda was 100% throughout. Besides, the “efficacy (laying of fertile eggs)” value in the data set on Boophilus microplus is given as 100%. In addition, the “efficacy (kill in %)” value with Lucilia cuprina and in the data set with Ctenocephalides felis [2] was 100% each time. This molecule returned a logP in [1] of 4.2.
On to `COc1ncc(-c2cn(-c3c(C)cc(C(F)(C(F)(F)F)C(F)(F)F)cc3C)nn2)cc1C(=O)NC1CC1` [Example 11], for which the efficacy in % in the data set with Tetranychus urticae (application rate 20 g/ha) is 90%; with Phaedon cochleariae, 100%; in the data set on Spodoptera frugiperda, 100%. For the same molecule, in the data set with Boophilus microplus, the “efficacy (laying of fertile eggs)” value stood at 100%. Further, the “efficacy (kill in %)” value in the data set with Lucilia cuprina, in the data set with Musca domestica and in the data set on Ctenocephalides felis [2] was 100% each time. Further, the logP in [1] is 4.3.
For `Cc1cc(C(F)(C(F)(F)F)C(F)(F)F)cc(C)c1-n1cc(-c2cnc(C)c(C(=O)NC3(C#N)CC3)c2)nn1` [Example 12], the efficacy in % with Tetranychus urticae (application rate 100 g/ha) is 100%; with Phaedon cochleariae, 100%; in the data set on Myzus persicae, 90%; in the data set with Spodoptera frugiperda, 100%. The “efficacy (laying of fertile eggs)” value is on record as 80% in data set [3] and 100% in the data set with Boophilus microplus. Further, the “efficacy (fleas dead or moribund)” value in the data set with Ctenocephalides felis [4] stood at 100%. Moreover, the “efficacy (ticks dead or moribund)” value in the data set on Rhipicephalus sanguineus was found to be 80%. The “efficacy (kill in %)” value in the data set with Lucilia cuprina, with Musca domestica and with Ctenocephalides felis [2] was 100% throughout. The same molecule registered a logP in data set [1] of 3.4.
With `Cc1cc(C(F)(C(F)(F)F)C(F)(F)F)cc(C(F)(F)F)c1-n1cc(-c2cnc(Cl)c(C(=O)NC3(C#N)CC3)c2)nn1` [Example 14], the efficacy in % with Tetranychus urticae (application rate 100 g/ha), with Phaedon cochleariae and with Spodoptera frugiperda was 100% each time. Moreover, the “efficacy (laying of fertile eggs)” value (in data set [3]; in the data set on Boophilus microplus) was 100% each time. In addition, the “efficacy (fleas dead or moribund)” value in the data set with Ctenocephalides felis [4] is recorded as 80%. In addition, the “efficacy (ticks dead or moribund)” value in the data set with Rhipicephalus sanguineus is 100%. The “efficacy (kill in %)” value is given as 90% with Lucilia cuprina, 100% with Musca domestica and 100% with Ctenocephalides felis [2]. The logP in [1] is 3.9.
As for `Cc1cc(C(F)(C(F)(F)F)C(F)(F)F)cc(C(F)(F)F)c1-n1cc(-c2cnc(Cl)c(C(=O)N(C)C3CC3)c2)nn1` [Example 15], the efficacy in % with Tetranychus urticae (application rate 100 g/ha) was 100%; with Phaedon cochleariae, 100%; with Myzus persicae it was 90%; in the data set with Spodoptera frugiperda, 100%. The “efficacy (laying of fertile eggs)” value (in data set [3]; in the data set on Boophilus microplus) was 100% each time. Besides, in the data set with Ctenocephalides felis [4], the “efficacy (fleas dead or moribund)” value came out at 100%. The “efficacy (kill in %)” value with Lucilia cuprina, in the data set with Musca domestica and in the data set with Ctenocephalides felis [2] was 100% each time. This molecule also displayed a logP in data set [1] of 4.3.
As to `N#CC1(NC(=O)c2cc(-c3cn(-c4c(Cl)cc(C(F)(C(F)(F)F)C(F)(F)F)cc4C(F)(F)F)nn3)cnc2Cl)CC1` [Example 17], the efficacy in % in the data set on Tetranychus urticae (application rate 100 g/ha) and with Phaedon cochleariae was 100% in each case. Also, the “efficacy (laying of fertile eggs)” value (in data set [3]; with Boophilus microplus) was 100% in each case. Also, the “efficacy (fleas dead or moribund)” value in the data set with Ctenocephalides felis [4] stood at 100%. In addition, the “efficacy (kill in %)” value in the data set on Lucilia cuprina, with Musca domestica and with Ctenocephalides felis [2] was 100% throughout. The molecule further returned a logP in data set [1] of 3.9.
For the molecule `CN(C(=O)c1cc(-c2cn(-c3c(Cl)cc(C(F)(C(F)(F)F)C(F)(F)F)cc3OC(F)(F)F)nn2)cnc1Cl)C1CC1` [Example 35], the efficacy in % came to 100% with Tetranychus urticae (application rate 100 g/ha), 100% in the data set with Phaedon cochleariae, 90% in the data set with Myzus persicae and 100% with Spodoptera frugiperda. Moreover, the “efficacy (laying of fertile eggs)” value with Boophilus microplus was found to be 100%. Further, the “efficacy (kill in %)” value in the data set with Lucilia cuprina, in the data set on Musca domestica and in the data set on Ctenocephalides felis [2] was 100% in each case. In [1], this molecule showed a logP of 4.6.
